Measurements from US20230381171A1, “AUTOIMMUNE THERAPY” (LDN Pharma Limited, priority 2018, published 2023).

Key:
Format in all cases: in vivo, human
[1] = Laboratory hormone levels of supplemented hormones (Example 3)
Method: They were also prescribed Dehydroepiandrosterone (DHEA) 5 mg and Nature Throid thyroid hormone supplement 48.75 mg, progesterone 100 mg every night and testosterone cream 4 mg per day for low libido, and they were taking turmeric and krill oil. They started tapering off the plaquenil.
During treatment estradiol 1.0 mg was started and also at this point they were off the plaquenil for 3 weeks totally. […] In addition, their Free T3 (triiodothyronine) was 3.1.
During the treatment regimen, the administered DHEA was increased to 10 mg. The DHEA hormone was measured to be 203, Estradiol 117, progesterone 0.2, T3 3.3.
The patient's levels are at optimal levels where the T3 is in the upper range.

[2] = system: Thyroiditis; assay: Case report Example 2: patient with thyroiditis treated with LDN and Vitamin D; conditions: 5,000 units of Vitamin D per day, before naltrexone
Excerpt: This antibody activity then can interfere with the ability to incorporate iodine into the thyroid molecule, thus interfering with thyroid cell function.

[3] = SpectraCell test of Vitamin D levels (Example 1); conditions: after a month of treatment; Vitamin D 5,000 units daily; 55 is adequate
Excerpt: A sufficient amount can be determined by the skilled person by making a routine assessment of certain parameters of the patient to undergo the administration, such as, but not limited to, age, weight, gender, history of illness and/or other lifestyle factors including smoking, alcohol consumption and the level of exercise. Furthermore the skilled person can ascertain whether a dose has been sufficient to raise the vitamin D blood concentration to a sufficient amount by performing routine biochemical and analytical assays on a biological sample obtained from the subject. Preferably, the sample upon which said analysis is to be performed is blood. Examples of such well known assays include but are not limited to mass spectrometry, where the level of vitamin D or active metabolites thereof can be quantitatively measured. A sufficient amount is therefore an amount that achieves the desired blood vitamin D concentration. The desired concentration can be achieved after single administration or after repeated administrations of a dose of vitamin D or an active metabolite thereof. […]

[4] = Standard serum test of vitamin D level (Example 2)
Method: The patient was receiving Synthroid as treatment for hypothyroidism, and they also presented with a rare form of macular degeneration requiring intra-ocular injections and interstitial cystitis. […] At the time they were not aware they had autoimmune thyroiditis.
Their dosage for Nature Throid was 97.5 mg twice a day for their thyroid supplementation. Their vitamin D level was 45 ng/ml, T3 was 4.1 and T4 (thyroxine, which converts into T3 in peripheral tissues) was 0.84. Their thyroid has stabilized as shown by these values; the patient's levels are at optimal levels where the T3 is in the upper range.

[5] = system: Hashimotos Thyroiditis, Fibromyalgia and Eosinophilic Esophaqitis; assay: Case report Example 1: patient treated with LDN and Vitamin D; conditions: LDN 1.5 to 4.5 mg daily, Vitamin D 5,000 then 7,000 units per day
Method: Patient's symptoms included severe fatigue and muscle aches and pains over their body from the fibromyalgia. They were already taking Vitamin D at a daily dosage of 5,000 units and 130 mg of Nature Throid supplementation (a porcine product). For the first week of LDN treatment, the patient was administered daily dosages of 1.5 mg LDN and the 5,000 units of Vitamin D continued. During the second week, the daily dosage of LDN was increased to 3.0 mg. During the third week, the daily dosage of LDN was increased to 4.5 mg. […] Administration of Vitamin D was increased to 7,000 units per day.
Her thyroid medication requirements were reduced. Her symptoms of fibromyalgia were resolved after addition of the naltrexone to the regimen.

[6] = system: Systemic Lupus Erythematosus (SLE) and Sjorgren's Disease; assay: Case report Example 3: patient treated with naltrexone and Vitamin D3; conditions: plaquenil 200 mg twice a day, before naltrexone
[7] = testosterone cream 4 mg per day, later measurements

Compound: C[C@]12CC[C@H](O)CC1=CC[C@@H]1[C@@H]2CC[C@]2(C)C(=O)CC[C@@H]12 [DHEA, Dehydroepiandrosterone]
- DHEA hormone level ([1]; DHEA increased to 10 mg): 203
- DHEA hormone level ([1]; last laboratory results): 169
- DHEA hormone level ([1]; later measurements): 142

Compound: Vitamin D
- effect in regards to interstitial cystitis [2]: did not seem to have any significant effect
- Vitamin D levels (SpectraCell test) [3]: 47
- vitamin D 25 OH level ([4]; 5,000 units of vitamin D daily, standard serum test, deficient level): 39
- vitamin D level ([4]; during LDN and Vitamin D treatment): 45 ng/mL

Compound: C[C@]12CC[C@H]3[C@@H](CCC4=CC(=O)CC[C@@]43C)[C@@H]1CC[C@@H]2O [testosterone]
- Free testosterone [1, 7]: 1.3
- total testosterone [1, 7]: 19

Compound: O=C1CC[C@@]2(O)[C@H]3Cc4ccc(O)c5c4[C@@]2(CCN3CC2CC2)[C@H]1O5 [naltrexone, morphinan-6-one,17-(cyclopropylmethyl)-4,5-epoxy-3,14-dihydroxy-(5a)]
- fibromyalgia symptoms [5]: resolved

Compound: CCN(CCO)CCCC(C)Nc1ccnc2cc(Cl)ccc12 (centres unmarked) [plaquenil]
- benefit on symptoms [6]: minimal benefit
